For eight molecules, Activity results are on record in ChEMBL document CHEMBL5126662, “Expanding the Ajudazol Cytotoxin Scaffold: Insights from Genome Mining, Biosynthetic Investigations, and Novel Derivatives” (J Nat Prod, 2022).

The source made the active and inactive calls. The rule behind the calls is not given here.

The first assay has as its system HepG2. Nature of the assay: Antiproliferative activity against human HepG2 cells assessed as reduction in cell viability after 5 days by MTT assay. Type of assay: functional, cell-based. The following applies: time 5.0 day.
`CC(C)=CC(=O)N(C)C/C=C/CC/C=C/C=C/C[C@@H](C)c1nc(C[C@@H](C)[C@H]2OC(=O)c3c(ccc(C)c3O)[C@@H]2O)co1`: the result was Active.

As to `CC(C)=CC(=O)N(C)C/C=C/CC/C=C/C=C/CC(O)(CO[C@@H]1O[C@H](CO)[C@@H](O)[C@H](O)[C@H]1O)c1nc(C[C@@H](C)[C@H]2OC(=O)c3c(ccc(C)c3O)[C@@H]2O)co1` (some centres undefined), the outcome was Active.

Regarding `CC(C)=CC(=O)N(C)C/C=C/CC/C=C/C=C/CC(C)(O)c1nc(C[C@@H](C)[C@H]2OC(=O)c3c(ccc(C)c3O)[C@@H]2O)co1` (some centres undefined), the result was Active.

With `C=C(C/C=C/C=C/CC/C=C/CN(C)C(=O)C=C(C)C)c1nc(C[C@@H](C)[C@H]2OC(=O)c3c(ccc(C)c3O)[C@@H]2O)co1`, the outcome was Active.

On to `C=C(C/C=C/C=C/CC/C=C/CN(C)C(=O)/C=C(\C)CO)c1nc(C[C@@H](C)[C@H]2OC(=O)c3c(ccc(C)c3O)[C@@H]2O)co1`, for which the outcome was Active.

Take `CC(C)=CC(=O)N(C)C/C=C/CC/C=C/C=C/CC(O)(CO)c1nc(C[C@@H](C)[C@H]2OC(=O)c3c(ccc(C)c3O)[C@@H]2O)co1` (some centres undefined): the result was Active.

As for `C=C(C/C=C/C=C/CC/C=C/CN(C)C(=O)C=C(C)C)c1nc(C[C@@H](C)[C@H]2OC(=O)c3c(ccc(C)c3O)[C@@H]2O[C@@H]2O[C@H](CO)[C@@H](O)[C@H](O)[C@H]2O)co1`, the outcome was Active.

On to `CC(C)=CC(=O)N(C)C/C=C/CC/C=C/C=C/CC(O)(CO[C@@H]1O[C@H](CO)[C@@H](O)[C@@H]1O)c1nc(C[C@@H](C)[C@H]2OC(=O)c3c(ccc(C)c3O)[C@@H]2O)co1` (some centres undefined), for which the outcome was Active.

A further assay relates to HCT-116. Nature of the assay: Antiproliferative activity against human HCT-116 cells assessed as reduction in cell viability after 5 days by MTT assay. The assay is classed as functional, cell-based. The following applies: time 5.0 day.
`CC(C)=CC(=O)N(C)C/C=C/CC/C=C/C=C/C[C@@H](C)c1nc(C[C@@H](C)[C@H]2OC(=O)c3c(ccc(C)c3O)[C@@H]2O)co1`: the result was Active.

As to `CC(C)=CC(=O)N(C)C/C=C/CC/C=C/C=C/CC(O)(CO[C@@H]1O[C@H](CO)[C@@H](O)[C@H](O)[C@H]1O)c1nc(C[C@@H](C)[C@H]2OC(=O)c3c(ccc(C)c3O)[C@@H]2O)co1` (some centres undefined), the outcome was Active.

In the case of `CC(C)=CC(=O)N(C)C/C=C/CC/C=C/C=C/CC(C)(O)c1nc(C[C@@H](C)[C@H]2OC(=O)c3c(ccc(C)c3O)[C@@H]2O)co1` (some centres undefined), the result was Active.

With `C=C(C/C=C/C=C/CC/C=C/CN(C)C(=O)C=C(C)C)c1nc(C[C@@H](C)[C@H]2OC(=O)c3c(ccc(C)c3O)[C@@H]2O)co1`, the outcome was Active.

With `C=C(C/C=C/C=C/CC/C=C/CN(C)C(=O)/C=C(\C)CO)c1nc(C[C@@H](C)[C@H]2OC(=O)c3c(ccc(C)c3O)[C@@H]2O)co1`, the result was Active.

For `CC(C)=CC(=O)N(C)C/C=C/CC/C=C/C=C/CC(O)(CO)c1nc(C[C@@H](C)[C@H]2OC(=O)c3c(ccc(C)c3O)[C@@H]2O)co1` (some centres undefined), the result was Active.

Consider `C=C(C/C=C/C=C/CC/C=C/CN(C)C(=O)C=C(C)C)c1nc(C[C@@H](C)[C@H]2OC(=O)c3c(ccc(C)c3O)[C@@H]2O[C@@H]2O[C@H](CO)[C@@H](O)[C@H](O)[C@H]2O)co1`, for which the outcome was Active.

Consider `CC(C)=CC(=O)N(C)C/C=C/CC/C=C/C=C/CC(O)(CO[C@@H]1O[C@H](CO)[C@@H](O)[C@@H]1O)c1nc(C[C@@H](C)[C@H]2OC(=O)c3c(ccc(C)c3O)[C@@H]2O)co1` (some centres undefined), for which the result was Active.

The test system of another assay is KB 3-1. Briefly: Antiproliferative activity against human KB3.1 cells assessed as reduction in cell viability after 5 days by MTT assay. Type of assay: functional, cell-based. The following applies: time 5.0 day.
As for `CC(C)=CC(=O)N(C)C/C=C/CC/C=C/C=C/C[C@@H](C)c1nc(C[C@@H](C)[C@H]2OC(=O)c3c(ccc(C)c3O)[C@@H]2O)co1`, the outcome was Active.

As for `CC(C)=CC(=O)N(C)C/C=C/CC/C=C/C=C/CC(O)(CO[C@@H]1O[C@H](CO)[C@@H](O)[C@H](O)[C@H]1O)c1nc(C[C@@H](C)[C@H]2OC(=O)c3c(ccc(C)c3O)[C@@H]2O)co1` (some centres undefined), the result was Active.

In the case of `CC(C)=CC(=O)N(C)C/C=C/CC/C=C/C=C/CC(C)(O)c1nc(C[C@@H](C)[C@H]2OC(=O)c3c(ccc(C)c3O)[C@@H]2O)co1` (some centres undefined), the outcome was Active.

For the molecule `C=C(C/C=C/C=C/CC/C=C/CN(C)C(=O)C=C(C)C)c1nc(C[C@@H](C)[C@H]2OC(=O)c3c(ccc(C)c3O)[C@@H]2O)co1`, the result was Active.

For the molecule `C=C(C/C=C/C=C/CC/C=C/CN(C)C(=O)/C=C(\C)CO)c1nc(C[C@@H](C)[C@H]2OC(=O)c3c(ccc(C)c3O)[C@@H]2O)co1`, the outcome was Active.

As for `CC(C)=CC(=O)N(C)C/C=C/CC/C=C/C=C/CC(O)(CO)c1nc(C[C@@H](C)[C@H]2OC(=O)c3c(ccc(C)c3O)[C@@H]2O)co1` (some centres undefined), the outcome was Active.

With `C=C(C/C=C/C=C/CC/C=C/CN(C)C(=O)C=C(C)C)c1nc(C[C@@H](C)[C@H]2OC(=O)c3c(ccc(C)c3O)[C@@H]2O[C@@H]2O[C@H](CO)[C@@H](O)[C@H](O)[C@H]2O)co1`, the result was Active.

Consider `CC(C)=CC(=O)N(C)C/C=C/CC/C=C/C=C/CC(O)(CO[C@@H]1O[C@H](CO)[C@@H](O)[C@@H]1O)c1nc(C[C@@H](C)[C@H]2OC(=O)c3c(ccc(C)c3O)[C@@H]2O)co1` (some centres undefined), for which the result was Active.
